Reference: patent publication US20230192661A1, “1, 4, 5, 6-TETRAHYDROPYRIMIDINE-2-AMINE DERIVATIVE” (UBE Corporation, priority 2020, published 2023)

Tested on: Human hepatic stellate cells
Test: Active human hepatic stellate cell dedifferentiation test (decrease in ACTA2 mRNA expression)
Assay type: cell-based
Settings: 3 days differentiation then 2 days with compound, read-out: IC50 (rate of decrease in ACTA2 mRNA expression)
Protocol: Human hepatic stellate cells (manufactured by ScienCell Research Laboratories, Inc., 5300) were suspended in DMEM containing 10% FBS and […] penicillin/streptomycin/amphotericin B to prepare a cell suspension of 0.5×10^5 cells/mL, which was regarded as cells at the start of differentiation. The cells at the start of differentiation were dispensed at 1 mL/well to a 12-well plate and cultured, for differentiation, for 3 days in a 5% CO2 incubator (37° C.).
The culture solution in each well was removed, and DMEM containing 10% FBS and 1% penicillin/streptomycin/amphotericin B supplemented with a test compound dissolved in DMSO (final DMSO concentration: 0.1%) was added at 1 mL/well. The resultant was further cultured for 2 days in a 5% CO2 incubator (37° C.). In Test Example 4, the same reagents as in Test Example 1 were used unless otherwise specified.
RNA in the cultured cells was extracted using NucleoSpin® RNA (manufactured by Takara Bio Inc., U0955C), and cDNA was further synthesized from the extracted RNA using Prime Script™ RT reagent Kit with gDNA Eraser (manufactured by Takara Bio Inc., RR047A). Real time PCR was performed using the synthesized cDNA, various primers and TB Green® Premix Ex Taq™ II (manufactured by Takara Bio Inc., RR820A) and using PCR Thermal Cycler Dice Real Time (manufactured by Takara Bio Inc., System Code TP910, Model Code TP900). The primers used were actin alpha 2, smooth muscle (ACTA2) primer (manufactured by Takara Bio Inc., HA136273) and glyceraldehyde-3-phosphate dehydrogenase (GAPDH) primer (manufactured by Takara Bio Inc., HA067812).
The amplification curve of PCR was analyzed by the comparative Ct method. The expression level of ACTA2 mRNA was corrected with the expression level of GAPDH mRNA. An ACTA2 mRNA expression level when DMSO was added instead of the test compound was defined as 100%, and an ACTA2 mRNA expression level in the cells at the start of differentiation was defined as 0%. The rate of decrease in ACTA2 mRNA expression by the test compound was calculated according to the following expression.
Rate of decrease in ACTA2 mRNA expression (%)=[1−{(ACTA2 mRNA expression level in the case of adding the test compound)−(ACTA2 mRNA expression level in the cells at the start of differentiation)}/{(ACTA2 mRNA expression level in the case of adding DMSO)−(ACTA2 mRNA expression level in the cells at the start of differentiation)}]×100
An IC50 value was calculated from the rate of decrease in ACTA2 mRNA expression by the test compound. A: IC50<10 nM, B: 10 nM≤IC50<50 nM, C: 50 nM≤IC50<100 nM, or D: IC50≥100 nM.

| Structure (SMILES) | IC50 [nM] |
| --- | --- |
| O=C(O)C[C@H](NC(=O)CNC(=O)c1cc(NC2=NCC(F)CN2)c2cn[nH]c2c1)c1cc(OC(F)F)cc(C(F)(F)F)c1 (stereo partly drawn) [Example 24-(b), (3S)-3-(3-(difluoromethoxy)-5-(trifluoromethyl)phenyl)-3-(2-(4-((5-fluoro-1,4,5,6-tetrahydropyrimidin-2-yl)amino)-1H-indazole-6-carboxamido)acetamido)propanoic acid] | < 10 |
| O=C(O)C[C@H](NC(=O)CNC(=O)c1cc(NC2=NCC(F)CN2)c2cn[nH]c2c1)c1cc(Cl)cc(OC(F)F)c1 (stereo partly drawn) [Example 25-(b), (3S)-3-(3-chloro-5-(difluoromethoxy)phenyl)-3-(2-(4-((5-fluoro-1,4,5,6-tetrahydropyrimidin-2-yl)amino)-1H-indazole-6-carboxamido)acetamido)propanoic acid] | < 10 |
| O=C(O)C[C@H](NC(=O)CNC(=O)c1cc(NC2=NCC(F)CN2)c2cn[nH]c2c1)c1cc(Br)cc(OC(F)F)c1 (stereo partly drawn) [Example 26-(b), (3S)-3-(3-bromo-5-(difluoromethoxy)phenyl)-3-(2-(4-((5-fluoro-1,4,5,6-tetrahydropyrimidin-2-yl)amino)-1H-indazole-6-carboxamido)acetamido)propanoic acid] | < 10 |
| O=C(O)C[C@H](NC(=O)CNC(=O)c1cc(NC2=NCC(F)CN2)c2cn[nH]c2c1)c1cc(OC(F)F)ccc1F (stereo partly drawn) [Example 28-(b), (3S)-3-(5-(difluoromethoxy)-2-fluorophenyl)-3-(2-(4-((5-fluoro-1,4,5,6-tetrahydropyrimidin-2-yl)amino)-1H-indazole-6-carboxamido)acetamido)propanoic acid] | 10 to 50 |
| O=C(O)C[C@H](NC(=O)CNC(=O)c1cc(NC2=NCC(F)CN2)c2cn[nH]c2c1)c1cc(OC(F)F)cc(OC(F)F)c1 (stereo partly drawn) [Example 30-(b), (3S)-3-(3,5-bis(difluoromethoxy)phenyl)-3-(2-(4-((5-fluoro-1,4,5,6-tetrahydropyrimidin-2-yl)amino)-1H-indazole-6-carboxamido)acetamido)propanoic acid] | < 10 |
| O=C(O)C[C@H](NC(=O)CNC(=O)c1cc(NC2=NCC(F)CN2)c2cn[nH]c2c1)c1cc(Cl)cc(OC(F)(F)F)c1 (stereo partly drawn) [Example 31-(b), (3S)-3-(3-chloro-5-(trifluoromethoxy)phenyl)-3-(2-(4-((5-fluoro-1,4,5,6-tetrahydropyrimidin-2-yl)amino)-1H-indazole-6-carboxamido)acetamido)propanoic acid] | < 10 |
| O=C(O)C[C@H](NC(=O)CNC(=O)c1cc(NC2=NCC(F)CN2)c2cn[nH]c2c1)c1cc(Br)cc(OC(F)(F)F)c1 (stereo partly drawn) [Example 32-(b), (3S)-3-(3-bromo-5-(trifluoromethoxy)phenyl)-3-(2-(4-((5-fluoro-1,4,5,6-tetrahydropyrimidin-2-yl)amino)-1H-indazole-6-carboxamido)acetamido)propanoic acid] | 10 to 50 |
| O=C(O)C[C@H](NC(=O)CNC(=O)c1cc(NC2=NCC(F)CN2)c2cn[nH]c2c1)c1cc(OC(F)(F)F)ccc1F (stereo partly drawn) [Example 33-(b), (3S)-3-(2-(4-((5-fluoro-1,4,5,6-tetrahydropyrimidin-2-yl)amino)-1H-indazole-6-carboxamido)acetamido)-3-(2-fluoro-5-(trifluoromethoxy)phenyl)propanoic acid] | 10 to 50 |
| O=C(O)C[C@H](NC(=O)CNC(=O)c1cc(NC2=NCC(F)CN2)c2cn[nH]c2c1)c1ccc(F)c(OC(F)(F)F)c1 (stereo partly drawn) [Example 34-(b), (3S)-3-(2-(4-((5-fluoro-1,4,5,6-tetrahydropyrimidin-2-yl)amino)-1H-indazole-6-carboxamido)acetamido)-3-(4-fluoro-3-(trifluoromethoxy)phenyl)propanoic acid] | 10 to 50 |
| O=C(O)C[C@H](NC(=O)CNC(=O)c1cc(NC2=NCC(F)CN2)c2cn[nH]c2c1)c1cccc(C(F)(F)F)c1 (stereo partly drawn) [Example 35-(b), (3S)-3-(2-(4-((5-fluoro-1,4,5,6-tetrahydropyrimidin-2-yl)amino)-1H-indazole-6-carboxamido)acetamido)-3-(3-(trifluoromethyl)phenyl)propanoic acid] | < 10 |
| O=C(O)C[C@H](NC(=O)CNC(=O)c1cc(NC2=NCC(F)CN2)c2cn[nH]c2c1)c1cccc(OC(F)(F)F)c1 (stereo partly drawn) [Example 36-(b), (3S)-3-(2-(4-((5-fluoro-1,4,5,6-tetrahydropyrimidin-2-yl)amino)-1H-indazole-6-carboxamido)acetamido)-3-(3-(trifluoromethoxy)phenyl)propanoic acid] | 10 to 50 |
| O=C(O)C[C@H](NC(=O)CNC(=O)c1cc(NC2=NCC(F)CN2)c2cn[nH]c2c1)c1cccc(OC(F)F)c1 (stereo partly drawn) [Example 37-(b), (3S)-3-(3-(difluoromethoxy)phenyl)-3-(2-(4-((5-fluoro-1,4,5,6-tetrahydropyrimidin-2-yl)amino)-1H-indazole-6-carboxamido)acetamido)propanoic acid] | 10 to 50 |
| O=C(O)C[C@H](NC(=O)CNC(=O)c1cc(NC2=NCC(F)CN2)c2cn[nH]c2c1)c1cccc(C(F)F)c1 (stereo partly drawn) [Example 38-(b), (3S)-3-(3-(difluoromethyl)phenyl)-3-(2-(4-((5-fluoro-1,4,5,6-tetrahydropyrimidin-2-yl)amino)-1H-indazole-6-carboxamido)acetamido)propanoic acid] | < 10 |
| O=C(O)C[C@H](NC(=O)CNC(=O)c1cc(NC2=NCC(F)CN2)c2cn[nH]c2c1)c1cccc(C2CC2)c1 (stereo partly drawn) [Example 39-(b), (3S)-3-(3-cyclopropylphenyl)-3-(2-(4-((5-fluoro-1,4,5,6-tetrahydropyrimidin-2-yl)amino)-1H-indazole-6-carboxamido)acetamido)propanoic acid] | < 10 |
| O=C(O)C[C@H](NC(=O)CNC(=O)c1cc(NC2=NCC(F)CN2)c2cn[nH]c2c1)c1cccc(OC2CC2)c1 (stereo partly drawn) [Example 40-(b), (3S)-3-(3-cyclopropoxyphenyl)-3-(2-(4-((5-fluoro-1,4,5,6-tetrahydropyrimidin-2-yl)amino)-1H-indazole-6-carboxamido)acetamido)propanoic acid] | 10 to 50 |
| O=C(O)C[C@H](NC(=O)CNC(=O)c1cc(NC2=NCC(F)CN2)c2cn[nH]c2c1)c1cccc(Cl)c1 (stereo partly drawn) [Example 41-(b), (3S)-3-(3-chlorophenyl)-3-(2-(4-((5-fluoro-1,4,5,6-tetrahydropyrimidin-2-yl)amino)-1H-indazole-6-carboxamido)acetamido)propanoic acid] | 10 to 50 |
| O=C(O)C[C@H](NC(=O)CNC(=O)c1cc(NC2=NCC(F)CN2)c2cn[nH]c2c1)c1cccc(Br)c1 (stereo partly drawn) [Example 42-(b), (3S)-3-(3-bromophenyl)-3-(2-(4-((5-fluoro-1,4,5,6-tetrahydropyrimidin-2-yl)amino)-1H-indazole-6-carboxamido)acetamido)propanoic acid] | 10 to 50 |
| O=C(O)C[C@H](NC(=O)CNC(=O)c1cc(NC2=NCC(F)CN2)c2cn[nH]c2c1)c1cccc(-n2cccn2)c1 (stereo partly drawn) [Example 43-(b), (3S)-3-(3-(1H-pyrazol-1-yl)phenyl)-3-(2-(4-((5-fluoro-1,4,5,6-tetrahydropyrimidin-2-yl)amino)-1H-indazole-6-carboxamido)acetamido)propanoic acid] | 10 to 50 |
| O=C(O)C[C@H](NC(=O)CNC(=O)c1cc(NC2=NCC(F)CN2)c2c(F)n[nH]c2c1)c1cc(Cl)cc(C(F)(F)F)c1 (stereo partly drawn) [Example 48-(b), (3S)-3-(3-chloro-5-(trifluoromethyl)phenyl)-3-(2-(3-fluoro-4-((5-fluoro-1,4,5,6-tetrahydropyrimidin-2-yl)amino)-1H-indazole-6-carboxamido)acetamido) propanoic acid] | < 10 |
| O=C(O)C[C@H](NC(=O)CNC(=O)c1cc(NC2=NCC(F)CN2)c2c(Cl)n[nH]c2c1)c1cc(Cl)cc(C(F)(F)F)c1 (stereo partly drawn) [Example 49-(b), (3S)-3-(2-(3-chloro-4-((5-fluoro-1,4,5,6-tetrahydropyrimidin-2-yl)amino)-1H-indazole-6-carboxamido)acetamido)-3-(3-chloro-5-(trifluoromethyl)phenyl)propanoic acid] | < 10 |
| O=C(O)C[C@H](NC(=O)CNC(=O)c1cc(NC2=NCC(F)CN2)cc2[nH]ncc12)c1cc(Cl)cc(C(F)(F)F)c1 (stereo partly drawn) [Example 52-(b), (3S)-3-(3-chloro-5-(trifluoromethyl)phenyl)-3-(2-(6-((5-fluoro-1,4,5,6-tetrahydropyrimidin-2-yl)amino)-1H-indazole-4-carboxamido)acetamido)propanoic acid] | 10 to 50 |
